Reference: US12616753B2, “HSP70 inhibitors and methods of using same” (THE WISTAR INSTITUTE, priority 2020, dated 2026)

Experiments:
[1] = tested on: MC38 and HT-29 cells; assay: Extracellular ATP release (CellTiter-Glo); format: cell-based
Description: FIG. 6A: 1×10^6 MC38 cells were injected subcutaneously into the right flank of 6-8-week-old male C57Bl/6 mice. Once tumors reached an approximate volume of 100 mm^3, mice were treated with AP-4-139B (10 mg/kg) every 48 hours. 20 days after the start of treatment, tumors were excised, weighed, minced and digested. Tumor-infiltrating and splenic conventional CD4 (cCD4) (Live CD45^+ DUMP^− CD3^+CD4^+Foxp3^−), Tregs (Live CD45^+ DUMP^− CD3^+CD4^+Foxp3^+), CD8 (Live CD45^+ DUMP^− CD3^+CD8^+) T-cells, and Dendritic Cells (Live CD45^+ DUMP^− CD3^−CD11c^+MHCII^+) numbers were assessed by flow cytometry. * p<0.05, n.s. not significant. n=8 mice per group. FIG. 6B: MC38 and HT-29 cells were treated with the indicated concentrations of AP-4-139B for either 8 or 24 hours; media was collected and subjected to WB for HMGB1. Data shown are representative of three technical replicates. FIG. 6C: MC38 and HT-29 cells were treated with the indicated concentrations of AP-4-139B for three hours and then assayed for extracellular ATP release. Each graphical representation indicates the mean±the standard deviation of three independent experiments relative to control (DMSO-treated) cells.
FIG. 6D: MC38 cells were treated with 5 μM AP-4-139B for 24 hours and subjected to flow cytometry, using Alexa488-tagged calreticulin antibody. *** p<0.001, n=4 biological replicates performed in duplicate. FIG. 6E: MC38 cells were treated with increasing concentrations of AP-4-139B, G-TPP, 17-AAG or Metformin for 3 hours and then assayed for extracellular ATP release. Three independent cultures were assayed for each treatment, and DMSO-treated cells were used as internal controls. Error bars represent standard deviation (SD).
The XF Cell Mito Stress Test was performed. Briefly, HT-29 (10,000 cells/well), IMR90 (15,000 cells/well), and 1205Lu (15,000 cells/well) were plated in Seahorse 96-well cell culture microplates, treated with the respective inhibitors for 24 hours, and subjected to the Seahorse XF Cell Mito Stress Test, according to the manufacturer's protocol (Agilent Technologies). For extracellular HMGB1 release, 1×10^6 MC38 cells were plated in 10-cm dishes. The next day, cells were treated with the indicated concentrations of AP-4-139B for 8 or 24 hours in serum-free media. Media was collected and spun down at 2,000 rpm for 5 minutes to pellet any remaining cells or debris. Media was then transferred to Amicon Ultra 15, 10K tubes and spun down at 4,000 rpm for 45 minutes, according to the manufacturer's protocol. […] For extracellular ATP release, ATP was measured using the CellTiter-Glo Kit (Promega catalog #G7570). […] 10 μl of CellTiter-Glo Reaction Mix was then mixed with 10 μl of culture media; the luminescence signal was detected using a luminometer.

[2] = tested on: MC38 cells; assay: In vivo metastasis assay (tail vein injection, C57Bl/6 mice); parameters: species or system mouse; conditions: 10 mg/kg every 48 hours, 3 weeks
Description: FIG. 24A: MC38 cells were subjected to invasion assays using BioCoat Matrigel transwells in the presence of the indicated concentrations of AP-4-139B. 24 hours later, cells were fixed and stained with Crystal Violet. Shown are representative images taken from 8 random fields of view per well. Scale bar=100 μm. FIG. 24B: Quantification of FIG. 24A *** p<0.001. FIG. 24C: Schematic representation of the metastasis assay. 4×10^5 MC38 cells were injected into the tail vein of 8-10 week old male C57Bl/6 mice. Mice were treated with i.p. injection of 10 mg/kg AP-4-139B every 48 hours. After 3 weeks, the lungs of mice were formalin fixed and H&E stained, and assessed for the presence of metastatic nodules. […] FIG. 24E: Quantification of FIG. 24D. n=5 mice per group. * p<0.05.
For in vivo metastasis assays, 8-10 week old male C57Bl/6 mice were injected with 4×10^5 MC38 cells. […] At the end of the study, mice were euthanized, lungs were harvested and fixed in formalin for analysis of lung tumor nodules by H&E. For anti-tumor vaccination studies, MC38 cells were treated with 10 μM AP-4-139B for 48 h, resulting in approximately 20% cell death (as assessed by Trypan Blue staining). […] Ten days later, mice were challenged on the right flank with 5×10^5 live MC38 cells, and tumor growth and incidence were monitored 3 times per week. […]

Structure (SMILES): c1ccc(-c2cn3nc(CCCCCC[P+](c4ccccc4)(c4ccccc4)c4ccccc4)sc3n2)cc1 [AP-4-139B, Triphenyl(6-(6-phenylimidazo[2,1-b][1,3,4]thiadiazol-2-yl)hexyl)phosphonium bromide]
- ATP release ([1]; MC38 and HT-29, three hours): ATP release
- ATP release, comparison of compounds ([1]; MC38 cells, increasing concentrations, 3 hours): most significant release of ATP
- number of tumor nodules in the lung [2]: markedly decreased number of tumor nodules in the lung
